Test results as given in patent publication US5095016A, “Benzopyran compounds, processes for their production and pharmaceutical compositions” (Kaken Pharmaceutical Co., Ltd., priority 1989, dated 1992).
Read-outs that look alike come from different tables or passages of the source.

Key:
[1] = system: spontaneously hypertensive rat (SHR); assay: Blood pressure lowering activity in spontaneously hypertensive rats (oral); type: in vivo
Experimental: A male spontaneously hypertensive rat (SHR) of 20 weeks old was put in a cage and heated in a heating box at 45° C. for 5 minutes. SHR heated for 5 minutes was fixed to a measuring board, and a cuff for pressurizing and for blood pressure measurement was attached to the tail. As the pressurizing started, the heart rate was measured. After the rat became quiet, the maximum blood pressure was measured.
On the other hand, a compound of the present invention was dissolved or suspended in a 0.5% methyl cellulose solution and orally administered. Then, the blood pressure was measured upon expiration of 1 hour, 3 hours and 6 hours after the administration. [formula]

Potassium channel = biological target: T1, Potassium channel (Rattus norvegicus, UniProt Q63563); assay: Potassium channel activating action: relaxation of KCl-contracted rat aorta spiral specimen; settings: for inhibition at 10 µM: 10^-5 mol; for inhibition at 1 µM: 10^-6 mol; for inhibition at 0.1 µM: 10^-7 mol
T1 construct: was extracted and formed into a spiral specimen; from tissue; host or cells: aorta of male Wistar rat (spiral strip)
Experimental: The aorta of a male Wister rat having a body weight of about 240 g was extracted and formed into a spiral specimen, which was suspended under a load of 0.5 g in a Krebs.Henselate solution (37° C.) saturated with a gas mixture of 95% oxygen+5% carbon dioxide. Then, 20 mM or 60 mM potassium chloride was added thereto, and the contraction reaction was measured by means of an isometric transducer (manufactured by Nippon Koden K.K.). When the contraction reaction by potassium chloride reached the maximum, a compound of the present invention was cumulatively added, whereupon the relaxation reaction was measured. The relaxation reaction due to the drug was determined as a relaxation rate relative to the maximum contraction by potassium chloride.

[2] = Acute toxicity test (oral); settings: mouse, in vivo, male mice, mortality after 72 hours
Experimental: For an acute toxicity test, ten male mice with body weights of 22 to 25 g were used as one group, and a compound of the present invention was orally administered at a dose corresponding to the body weight. From the mortality after 72 hours, LD50 was calculated by an area method.

[3] = 20 mM KCl, read-out: Relaxation rate (%) in 20 mM KCl
[4] = 60 mM KCl, read-out: Relaxation rate (%) in 60 mM KCl

T1 sequence (Q63563 1-1545 isoform Q63563-2): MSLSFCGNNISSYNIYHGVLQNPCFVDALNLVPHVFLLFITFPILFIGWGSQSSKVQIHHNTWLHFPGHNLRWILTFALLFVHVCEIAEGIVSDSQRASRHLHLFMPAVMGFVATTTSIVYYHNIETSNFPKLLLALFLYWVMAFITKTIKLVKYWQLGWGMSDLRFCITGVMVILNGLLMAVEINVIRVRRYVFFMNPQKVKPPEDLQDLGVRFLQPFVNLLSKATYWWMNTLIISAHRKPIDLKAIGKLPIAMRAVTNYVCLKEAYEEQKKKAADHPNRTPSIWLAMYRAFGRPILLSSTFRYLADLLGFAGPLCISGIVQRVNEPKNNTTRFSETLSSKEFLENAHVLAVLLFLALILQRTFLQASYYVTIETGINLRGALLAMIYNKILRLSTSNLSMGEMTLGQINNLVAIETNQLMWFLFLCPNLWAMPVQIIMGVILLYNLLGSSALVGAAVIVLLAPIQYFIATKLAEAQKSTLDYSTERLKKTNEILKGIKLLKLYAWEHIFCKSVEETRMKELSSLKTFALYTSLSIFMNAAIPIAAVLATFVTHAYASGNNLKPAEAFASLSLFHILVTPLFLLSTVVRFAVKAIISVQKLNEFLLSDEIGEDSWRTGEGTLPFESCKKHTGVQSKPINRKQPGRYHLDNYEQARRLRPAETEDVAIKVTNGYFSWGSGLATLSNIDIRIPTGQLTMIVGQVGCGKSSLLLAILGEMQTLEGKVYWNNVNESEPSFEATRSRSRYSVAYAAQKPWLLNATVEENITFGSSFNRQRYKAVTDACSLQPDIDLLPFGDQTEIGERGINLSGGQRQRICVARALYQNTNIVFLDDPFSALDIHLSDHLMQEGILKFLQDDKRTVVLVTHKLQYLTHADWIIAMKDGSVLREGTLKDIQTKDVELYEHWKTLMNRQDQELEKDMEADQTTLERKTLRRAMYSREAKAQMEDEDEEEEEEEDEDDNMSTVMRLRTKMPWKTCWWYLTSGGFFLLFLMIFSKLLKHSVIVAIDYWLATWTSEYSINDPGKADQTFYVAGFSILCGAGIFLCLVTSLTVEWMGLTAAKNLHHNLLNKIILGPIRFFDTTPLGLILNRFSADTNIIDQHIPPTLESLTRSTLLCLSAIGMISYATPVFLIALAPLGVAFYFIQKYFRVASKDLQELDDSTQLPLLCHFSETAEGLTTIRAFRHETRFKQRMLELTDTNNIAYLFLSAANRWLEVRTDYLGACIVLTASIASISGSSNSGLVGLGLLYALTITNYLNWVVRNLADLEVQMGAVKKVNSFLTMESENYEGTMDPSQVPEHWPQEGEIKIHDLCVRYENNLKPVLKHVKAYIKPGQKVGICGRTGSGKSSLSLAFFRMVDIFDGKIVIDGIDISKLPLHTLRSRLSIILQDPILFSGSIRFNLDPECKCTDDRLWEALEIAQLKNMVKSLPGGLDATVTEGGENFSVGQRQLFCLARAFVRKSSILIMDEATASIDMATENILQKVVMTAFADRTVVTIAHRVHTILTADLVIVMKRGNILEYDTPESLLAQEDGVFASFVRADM
T1 sequence (Q63664 whole entry partner): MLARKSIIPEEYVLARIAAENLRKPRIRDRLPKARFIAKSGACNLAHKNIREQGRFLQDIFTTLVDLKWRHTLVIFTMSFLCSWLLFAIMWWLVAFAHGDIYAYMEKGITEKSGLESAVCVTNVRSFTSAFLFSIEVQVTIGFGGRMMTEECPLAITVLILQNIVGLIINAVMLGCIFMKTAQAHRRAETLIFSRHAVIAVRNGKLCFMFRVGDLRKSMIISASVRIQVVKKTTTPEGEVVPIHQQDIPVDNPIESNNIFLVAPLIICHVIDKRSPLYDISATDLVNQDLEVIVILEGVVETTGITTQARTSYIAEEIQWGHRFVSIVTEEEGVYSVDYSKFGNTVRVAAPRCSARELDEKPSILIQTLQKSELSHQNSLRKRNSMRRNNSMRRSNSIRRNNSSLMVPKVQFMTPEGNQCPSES

| SMILES | Change (%) from the value before administration ([1]; 3 mg/kg, 1 hr later) [%] | Change (%) from the value before administration ([1]; 3 mg/kg, 3 hrs later) [%] | Change (%) from the value before administration ([1]; 3 mg/kg, 6 hrs later) [%] | Change (%) from the value before administration ([1]; 10 mg/kg, 1 hr later) [%] | Change (%) from the value before administration ([1]; 10 mg/kg, 3 hrs later) [%] | Change (%) from the value before administration ([1]; 10 mg/kg, 6 hrs later) [%] | inhibition at 10 µM (Potassium channel; [3]) [%] | inhibition at 1 µM (Potassium channel; [3]) [%] | inhibition at 0.1 µM (Potassium channel; [3]) [%] | inhibition at 0.01 µM (Potassium channel; [3]) [%] | inhibition at 10 µM (Potassium channel; [4]) [%] | inhibition at 1 µM (Potassium channel; [4]) [%] | inhibition at 0.1 µM (Potassium channel; [4]) [%] | inhibition at 0.01 µM (Potassium channel; [4]) [%] | Change (%) from the value before administration ([1]; 0.1 mg/kg, 1 hr later) [%] | Change (%) from the value before administration ([1]; 0.1 mg/kg, 3 hrs later) [%] | Change (%) from the value before administration ([1]; 0.1 mg/kg, 6 hrs later) [%] | Change (%) from the value before administration ([1]; 0.3 mg/kg, 1 hr later) [%] | Change (%) from the value before administration ([1]; 0.3 mg/kg, 3 hrs later) [%] | Change (%) from the value before administration ([1]; 0.3 mg/kg, 6 hrs later) [%] | further results |
| --- | --- | --- | --- | --- | --- | --- | --- | --- | --- | --- | --- | --- | --- | --- | --- | --- | --- | --- | --- | --- | --- |
| COC(=O)C1=C(C)NC(C)=C(C(=O)OCCN(C)Cc2ccccc2)C1c1cccc([N+](=O)[O-])c1 (stereo not drawn) [Nicardipin, reference compound] | 20 | 8 | 0 | 40 | 9 | 7 |  |  |  |  |  |  |  |  |  |  |  |  |  |  |  |
| CC(=NC#N)N[C@@H]1c2cc(C#N)ccc2OC(C)(C)[C@H]1O (relative stereo) [Example 2, 6-cyano-3,4-dihydro-2,2-dimethyl-trans-4-[(N-cyano-acetimidoyl)amino]-2H-benzo[b]pyran-3-ol] | 60 | 56 | 58 | 64 | 61 | 61 | 100 | 95.6 | 30.6 | 6.8 | 5.6 | 1 | 0 | 0 | 10 | 5 | 0 | 26 | 17 | 12 | Change (%) from the value before administration ([1]; 1 mg/kg, 1 hr later): 42%; Change (%) from the value before administration ([1]; 1 mg/kg, 3 hrs later): 45%; Change (%) from the value before administration ([1]; 1 mg/kg, 6 hrs later): 26%; LD50 at 72 h [2]: ≥ 2000 mg/kg |
| CC(=NC#N)NC1=CC(C)(C)Oc2ccc(C#N)cc21 [Example 34, 6-cyano-2,2-dimethyl-4-[(N-cyano-acetimidoyl)amino]-2H-benzo[b]pyran] | 65 | 63 | 63 | 64 | 64 | 65 | 100 | 100 | 94.3 | 28.7 | 21.8 | 13.2 | 4.5 | 0 | 12 | 5 | 0 | 41 | 45 | 23 | Change (%) from the value before administration ([1]; 1 mg/kg, 1 hr later): 62%; Change (%) from the value before administration ([1]; 1 mg/kg, 3 hrs later): 60%; Change (%) from the value before administration ([1]; 1 mg/kg, 6 hrs later): 57%; LD50 at 72 h [2]: ≥ 2000 mg/kg |
